Laboratory results as given in US20190119282A1, “IMIDAZOPYRIDAZINES USEFUL AS INHIBITORS OF THE PAR-2 SIGNALING PATHWAY” (Vertex Pharmaceuticals Incorporated, priority 2013, published 2019).

Key:
[1] = biological target: T1, PAR2 (HT-29 cells, SLIGKV activation) (Homo sapiens, UniProt P55085); assay: Ca FLIPR TETRA assay, ANTAGONIST mode, stimulation with 8 μM SLIGKV; format: cell-based; details: HT-29 cells, stimulation with 8 μM SLIGKV
T1 construct: host or cells: HT-29 cells
T1 sequence (P55085 26-397): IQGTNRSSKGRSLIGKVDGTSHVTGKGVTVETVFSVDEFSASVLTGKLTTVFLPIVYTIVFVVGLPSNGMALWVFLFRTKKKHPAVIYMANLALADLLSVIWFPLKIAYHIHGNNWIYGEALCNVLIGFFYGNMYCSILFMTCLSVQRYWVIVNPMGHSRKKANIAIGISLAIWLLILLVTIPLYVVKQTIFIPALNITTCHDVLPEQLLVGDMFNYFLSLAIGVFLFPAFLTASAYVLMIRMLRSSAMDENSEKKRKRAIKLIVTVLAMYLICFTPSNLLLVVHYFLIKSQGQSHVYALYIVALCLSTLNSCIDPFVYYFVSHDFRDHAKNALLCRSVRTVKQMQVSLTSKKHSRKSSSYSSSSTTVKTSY
How it was run: (§1)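 HT-29 cells grown overnight in 1% FBS McCoy's medium were loaded with calcium 5 dye (45 min 37 °C, 15 min r.t.). Compounds were added and Ca2+ read for direct activation, then after 30 min at r.t. cells were stimulated with 8 μM SLIGKV, 1 U/mL thrombin, 3.1 U/mL trypsin or 0.6 μM UTP (final).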

[2] = biological target: T2, PAR2 (HT-29 cells, trypsin activation) (Homo sapiens, UniProt P55085); assay: Ca FLIPR TETRA assay, ANTAGONIST mode, stimulation with 3.1 U/mL trypsin; format: cell-based; details: HT-29 cells, stimulation with 3.1 U/mL trypsin
T2 construct: host or cells: HT-29 cells
T2 sequence (P55085 26-397): T1 sequence (P55085 26-397)
How it was run: as §1

[3] = tested on: Thrombin-stimulated Ca2+ response in HT-29 cells; assay: Ca FLIPR TETRA assay, ANTAGONIST mode, stimulation with 1 U/mL Thrombin; format: cell-based, human; details: Homo sapiens; HT-29 cells, stimulation with 1 U/mL Thrombin
How it was run: as §1

[4] = tested on: UTP-stimulated Ca2+ response in HT-29 cells; assay: Ca FLIPR TETRA assay, ANTAGONIST mode, stimulation with 0.6 μM UTP; format: cell-based, human; details: Homo sapiens; HT-29 cells, stimulation with 0.6 μM UTP
How it was run: as §1

IC50 [1]	IC50 [2]	IC50 [3]	IC50 [4]	Compound
0.002 µM	0.005 µM	> 0.5 µM	> 0.5 µM	CC(C)c1cc(-c2ccc(F)cc2)nn2cc(C(=O)N3CCN(C(=O)Cc4ccsc4)[C@@H](C)C3)nc12 [Compound I-125]
0.025 µM	0.21 µM	13 µM	13 µM	C#CCCC(=O)N1CCN(C(=O)c2cn3nc(-c4ccc(F)cc4)cc(C(C)C)c3n2)C[C@@H]1C [Compound I-126]
0.002 µM	0.004 µM	6.5 µM	5.4 µM	CC(C)CCC(=O)N1CCN(C(=O)c2cn3nc(-c4ccc(F)cc4)cc(C(C)C)c3n2)C[C@@H]1C [Compound I-127]
0.002 µM	0.002 µM	30 µM	31 µM	CC(C)c1cc(-c2ccc(F)cc2)nn2cc(C(=O)N3CCN(C(=O)CC4CCCCC4)[C@@H](C)C3)nc12 [Compound I-128]
0.12 µM	0.5 µM	41 µM	37 µM	COCCC(=O)N1CCN(C(=O)c2cn3nc(-c4ccc(F)cc4)cc(C(C)C)c3n2)C[C@@H]1C [Compound I-129]
0.002 µM	0.006 µM	4.5 µM	5 µM	CC(C)c1cc(-c2ccc(F)cc2)nn2cc(C(=O)N3CCN(C(=O)CC(C)(C)C)[C@@H](C)C3)nc12 [Compound I-130]
0.067 µM	0.65 µM	33 µM	32 µM	CC(C)c1cc(-c2ccc(F)cc2)nn2cc(C(=O)N3CCN(C(=O)CC(C)(C)O)[C@@H](C)C3)nc12 [Compound I-131]
0.003 µM	0.005 µM	> 0.5 µM	> 0.5 µM	COc1cccc(CC(=O)N2CCN(C(=O)c3cn4nc(-c5ccc(F)cc5)cc(C(C)C)c4n3)C[C@@H]2C)c1 [Compound I-132]
0.001 µM	0.006 µM	36 µM	> 0.5 µM	COc1ccc(CC(=O)N2CCN(C(=O)c3cn4nc(-c5ccc(F)cc5)cc(C(C)C)c4n3)C[C@@H]2C)cc1 [Compound I-133]
0.012 µM	0.28 µM	10 µM	7.9 µM	Cc1cc(C)n(CCC(=O)N2CCN(C(=O)c3cn4nc(-c5ccc(F)cc5)cc(C(C)C)c4n3)C[C@@H]2C)n1 [Compound I-134]
0.022 µM	0.22 µM	16 µM	17 µM	CC(C)c1cc(-c2ccc(F)cc2)nn2cc(C(=O)N3CCN(C(=O)CCn4cccn4)[C@@H](C)C3)nc12 [Compound I-135]
0.007 µM	0.034 µM	> 5 µM	7.7 µM	Cc1noc(C)c1CCC(=O)N1CCN(C(=O)c2cn3nc(-c4ccc(F)cc4)cc(C(C)C)c3n2)C[C@@H]1C [Compound I-136]
0.042 µM	0.24 µM	43 µM	40 µM	CC(C)c1cc(-c2ccc(F)cc2)nn2cc(C(=O)N3CCN(C(=O)CCN4CCCCC4=O)[C@@H](C)C3)nc12 [Compound I-137]
0.011 µM	0.052 µM	> 5 µM	> 5 µM	CC(C)c1cc(-c2ccc(F)cc2)nn2cc(C(=O)N3CCN(C(=O)CCC(F)(F)F)[C@@H](C)C3)nc12 [Compound I-138]
0.002 µM	0.009 µM	25 µM	> 0.5 µM	CC(C)CCCC(=O)N1CCN(C(=O)c2cn3nc(-c4ccc(F)cc4)cc(C(C)C)c3n2)C[C@@H]1C [Compound I-139]
0.014 µM	0.25 µM	15 µM	14 µM	CC(C)c1cc(-c2ccc(F)cc2)nn2cc(C(=O)N3CCN(C(=O)CC4CC4)[C@@H](C)C3)nc12 [Compound I-140]
0.016 µM	0.13 µM	19 µM	24 µM	CC(C)c1cc(-c2ccc(F)cc2)nn2cc(C(=O)N3CCN(C(=O)CC4CCOCC4)[C@@H](C)C3)nc12 [Compound I-141]
0.035 µM	0.28 µM	26 µM	24 µM	CC(C)c1cc(-c2ccc(F)cc2)nn2cc(C(=O)N3CCN(C(=O)Cc4cccnc4)[C@@H](C)C3)nc12 [Compound I-142]
0.041 µM	0.29 µM	22 µM	21 µM	CCOCCC(=O)N1CCN(C(=O)c2cn3nc(-c4ccc(F)cc4)cc(C(C)C)c3n2)C[C@@H]1C [Compound I-143]

IC50 [1]	IC50 [2]	IC50 [3]	IC50 [4]	Compound
0.002 µM	0.005 µM	6.6 µM	5.2 µM	CC(C)c1cc(-c2ccc(F)cc2)nn2cc(C(=O)N3CCN(C(=O)CCC4CCC4)[C@@H](C)C3)nc12 [Compound I-144]
0.072 µM	0.33 µM	24 µM	23 µM	CC(C)c1cc(-c2ccc(F)cc2)nn2cc(C(=O)N3CCN(C(=O)CC4CCOC4)[C@@H](C)C3)nc12 (some centres unmarked) [Compound I-145]
0.016 µM	1 µM	20 µM	19 µM	CCC(C)(O)CC(=O)N1CCN(C(=O)c2cn3nc(-c4ccc(F)cc4)cc(C(C)C)c3n2)C[C@@H]1C (some centres unmarked) [Compound I-146]
0.006 µM	0.061 µM	8 µM	6.6 µM	CCCCC(=O)N1CCN(C(=O)c2cn3nc(-c4ccc(F)cc4)cc(C(C)C)c3n2)C[C@@H]1C [Compound I-147]
0.052 µM	0.096 µM	> 50 µM	39 µM	CC(C)c1cc(-c2ccc(F)cc2)nn2cc(C(=O)N3CCN(C(=O)C4(NC(=O)OC(C)(C)C)CC4)[C@@H](C)C3)nc12 [Compound I-148]
0.03 µM	0.057 µM	> 50 µM	> 50 µM	CC(C)c1cc(-c2ccc(F)cc2)nn2cc(C(=O)N3CCN(C(=O)C4(NC(=O)OC(C)(C)C)CCC4)[C@@H](C)C3)nc12 [Compound I-149]
0.074 µM	0.23 µM	> 50 µM	84 µM	CC(C)c1cc(-c2ccc(F)cc2)nn2cc(C(=O)N3CCN(C(=O)C4(NC(=O)OC(C)(C)C)CCCCC4)[C@@H](C)C3)nc12 [Compound I-150]
0.063 µM	0.16 µM	> 50 µM	> 50 µM	CC(C)c1cc(-c2ccc(F)cc2)nn2cc(C(=O)N3CCN(C(=O)C(C)(C)NC(=O)OCc4ccccc4)[C@@H](C)C3)nc12 [Compound I-151]
0.004 µM	0.054 µM	13 µM	10 µM	CC(C)c1cc(-c2ccc(F)cc2)nn2cc(C(=O)N3CCN(C(=O)[C@H](O)C(C)(C)C)[C@@H](C)C3)nc12 [Compound I-152]
0.25 µM	1.45 µM	19 µM	22 µM	Cc1cc(-c2ccc(F)cc2)nn2cc(C(=O)N3CCN(C(=O)[C@H](O)C(C)(C)C)[C@@H](C)C3)nc12 [Compound I-153]
1.4 µM	6.4 µM	> 50 µM	> 50 µM	CC(C)c1cc(-c2ccc(F)cc2)nn2cc(C(=O)N3CCN(C(=O)C4(N)CC4)[C@@H](C)C3)nc12 [Compound I-154]
0.8 µM	3.5 µM	27 µM	25 µM	CC(C)c1cc(-c2ccc(F)cc2)nn2cc(C(=O)N3CCN(C(=O)C4(N)CCC4)[C@@H](C)C3)nc12 [Compound I-155]
1.4 µM	6.8 µM	21 µM	17 µM	CC(C)c1cc(-c2ccc(F)cc2)nn2cc(C(=O)N3CCN(C(=O)C4(N)CCCCC4)[C@@H](C)C3)nc12 [Compound I-156]
5.7 µM	14 µM	40 µM	38 µM	CC(C)c1cc(-c2ccc(F)cc2)nn2cc(C(=O)N3CCN(C(=O)C(C)(C)N)[C@@H](C)C3)nc12 [Compound I-157]
9.1 µM	26 µM	77 µM	67 µM	Cc1cc(-c2ccc(F)cc2)nn2cc(C(=O)N3CCN(C(=O)C(C)(C)O)[C@@H](C)C3)nc12 [Compound I-158]
7.3 µM	17 µM	42 µM	36 µM	Cc1cc(-c2ccc(F)cc2)nn2cc(C(=O)N3CCN(C(=O)C4(O)CCC4)[C@@H](C)C3)nc12 [Compound I-159]
0.01 µM	0.041 µM	7.9 µM	14 µM	C=CC(=O)N1CCN(C(=O)c2cn3nc(-c4ccc(F)cc4)cc(C(C)C)c3n2)C(C)(C)C1 [Compound I-160]
0.2 µM	0.33 µM	140 µM	72 µM	CCc1cc(-c2ccc(F)cc2)nn2cc(C(=O)N3CCN(C(=O)C(C)(C)O)CC3(C)C)nc12 [Compound I-161]
0.11 µM	0.16 µM	35 µM	35 µM	CCc1cc(-c2ccc(F)cc2)nn2cc(C(=O)N3CCN(C(=O)C4(O)CCC4)CC3(C)C)nc12 [Compound I-162]
